Measurements from BindingDB's records for doi:10.1021/acsmedchemlett.7b00245 (University of Iowa, 2017).

Assay: Activation of BTN3A1 in human PBMC-derived Vgamma9Vdelta2 T cells assessed as induction of interleukin 2 stimulated cell proliferation by measuring increase in CD3 positive cells incubated for 3 days followed by 11 days incubation post compound wash out with subsequent stimulation with IL-2 every 3 days measured after 14 days by flow cytometr
For `C/C(=C\CCP(=O)(O)Oc1ccccc1)CO`, the EC50 was 870 nM. With `C/C(=C\CCP(=O)(COC(=O)C(C)(C)C)Oc1cccc2ccccc12)CO` (configuration not stated) the EC50 was 0.79 nM. In the case of `COP(=O)(CC/C=C(\C)CO)Oc1ccccc1` (configuration not stated), the EC50 is reported as 33000 nM. `C/C(=C\CCP(=O)(COC(=O)C(C)(C)C)Oc1ccccc1)CO` (configuration not stated) showed an EC50 of 14 nM. Compound `COP(=O)(CC/C=C(\C)CO)Oc1cccc2ccccc12` (configuration not stated) has an EC50 of 5500 nM. `C/C(=C\CCP(=O)(O)Oc1cccc2ccccc12)CO` showed an EC50 of 610 nM. Compound `C/C(=C\CCP(=O)(COC(=O)C(C)(C)C)OCOC(=O)C(C)(C)C)CO` (configuration not stated) has an EC50 of 5.4 nM.
